Our source for the Ki values is US9096602B2, “Substituted pyrrolo[2,3-B]pyrazines as ATR kinase inhibitors” (Vertex Pharmaceuticals Incorporated, priority 2011, dated 2015).

Structures are written as SMILES.

T1 sequence (Q13535 whole entry): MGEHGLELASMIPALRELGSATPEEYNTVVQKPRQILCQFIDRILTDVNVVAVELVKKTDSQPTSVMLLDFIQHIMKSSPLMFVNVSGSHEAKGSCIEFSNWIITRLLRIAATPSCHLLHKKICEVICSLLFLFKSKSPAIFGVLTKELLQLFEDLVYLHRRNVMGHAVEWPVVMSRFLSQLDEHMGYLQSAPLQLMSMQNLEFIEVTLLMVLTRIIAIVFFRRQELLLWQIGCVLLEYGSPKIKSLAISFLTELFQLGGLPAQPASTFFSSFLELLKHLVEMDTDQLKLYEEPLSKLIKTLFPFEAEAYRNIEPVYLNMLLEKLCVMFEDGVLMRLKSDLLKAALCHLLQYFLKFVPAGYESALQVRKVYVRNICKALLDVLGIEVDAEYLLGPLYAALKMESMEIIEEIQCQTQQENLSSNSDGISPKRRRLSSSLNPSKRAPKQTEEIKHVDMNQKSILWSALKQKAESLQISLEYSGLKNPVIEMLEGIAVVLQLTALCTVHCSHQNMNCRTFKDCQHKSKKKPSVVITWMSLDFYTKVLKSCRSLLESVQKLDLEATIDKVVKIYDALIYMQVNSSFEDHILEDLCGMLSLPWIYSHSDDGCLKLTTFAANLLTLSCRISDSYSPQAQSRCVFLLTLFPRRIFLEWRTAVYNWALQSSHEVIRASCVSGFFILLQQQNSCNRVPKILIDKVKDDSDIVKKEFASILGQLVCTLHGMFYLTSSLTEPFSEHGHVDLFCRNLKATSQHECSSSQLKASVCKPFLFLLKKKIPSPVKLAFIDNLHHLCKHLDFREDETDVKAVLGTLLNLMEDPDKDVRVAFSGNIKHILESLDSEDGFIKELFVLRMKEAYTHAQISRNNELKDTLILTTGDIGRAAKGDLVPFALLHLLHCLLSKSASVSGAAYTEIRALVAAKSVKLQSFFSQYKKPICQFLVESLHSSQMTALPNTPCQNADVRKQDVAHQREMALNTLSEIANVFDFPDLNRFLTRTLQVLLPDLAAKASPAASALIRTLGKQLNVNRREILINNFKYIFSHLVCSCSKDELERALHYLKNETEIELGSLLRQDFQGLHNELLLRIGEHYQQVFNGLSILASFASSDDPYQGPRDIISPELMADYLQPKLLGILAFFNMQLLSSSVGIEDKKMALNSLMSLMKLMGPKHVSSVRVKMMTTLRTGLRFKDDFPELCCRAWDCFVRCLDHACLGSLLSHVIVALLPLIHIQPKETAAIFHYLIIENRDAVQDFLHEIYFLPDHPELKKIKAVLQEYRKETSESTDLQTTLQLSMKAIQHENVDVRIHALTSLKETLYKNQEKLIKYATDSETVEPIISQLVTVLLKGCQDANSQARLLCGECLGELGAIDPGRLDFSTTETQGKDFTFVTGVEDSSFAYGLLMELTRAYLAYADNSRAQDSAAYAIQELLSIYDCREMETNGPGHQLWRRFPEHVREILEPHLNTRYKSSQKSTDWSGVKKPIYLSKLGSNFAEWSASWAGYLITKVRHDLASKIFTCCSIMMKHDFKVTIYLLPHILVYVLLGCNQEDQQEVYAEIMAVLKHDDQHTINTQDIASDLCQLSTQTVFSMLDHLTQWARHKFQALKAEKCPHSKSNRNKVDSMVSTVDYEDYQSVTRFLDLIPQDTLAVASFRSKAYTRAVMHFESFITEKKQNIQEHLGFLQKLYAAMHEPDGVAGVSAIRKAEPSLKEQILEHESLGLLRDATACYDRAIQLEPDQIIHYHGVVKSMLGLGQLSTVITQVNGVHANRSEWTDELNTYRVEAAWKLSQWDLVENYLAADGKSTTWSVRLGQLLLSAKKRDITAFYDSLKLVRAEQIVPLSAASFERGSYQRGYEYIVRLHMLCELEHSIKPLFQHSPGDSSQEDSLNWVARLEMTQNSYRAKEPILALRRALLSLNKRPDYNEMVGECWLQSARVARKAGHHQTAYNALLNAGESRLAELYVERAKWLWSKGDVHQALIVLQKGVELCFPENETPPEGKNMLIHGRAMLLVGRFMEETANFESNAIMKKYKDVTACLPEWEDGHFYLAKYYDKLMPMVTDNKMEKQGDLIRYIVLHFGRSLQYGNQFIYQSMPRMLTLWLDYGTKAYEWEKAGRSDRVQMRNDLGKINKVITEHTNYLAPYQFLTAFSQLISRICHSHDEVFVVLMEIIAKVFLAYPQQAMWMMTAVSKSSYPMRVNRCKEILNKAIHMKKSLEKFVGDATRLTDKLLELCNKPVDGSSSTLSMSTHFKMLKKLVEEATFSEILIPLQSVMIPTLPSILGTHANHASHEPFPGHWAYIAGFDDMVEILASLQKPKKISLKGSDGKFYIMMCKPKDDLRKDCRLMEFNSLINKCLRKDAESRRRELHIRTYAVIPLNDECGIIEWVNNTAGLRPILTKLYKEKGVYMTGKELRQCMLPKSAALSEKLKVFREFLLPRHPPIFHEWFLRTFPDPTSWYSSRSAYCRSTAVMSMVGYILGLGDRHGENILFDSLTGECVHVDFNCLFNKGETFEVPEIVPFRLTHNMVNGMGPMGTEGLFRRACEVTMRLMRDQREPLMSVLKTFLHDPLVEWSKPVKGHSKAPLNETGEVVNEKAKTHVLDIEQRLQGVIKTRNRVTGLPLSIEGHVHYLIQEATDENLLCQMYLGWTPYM

The first experiment concerns the target T1, ATR kinase (full-length ATR) (Homo sapiens, UniProt Q13535).
T1 construct: Assays were carried out at 25° C. in the presence of 5 nM full-length ATR
Kind of experiment: ATR Inhibition Assay (radioactive-phosphate incorporation). The settings on record: Ki(app); 5 nM full-length ATR, 10 μM ATP, 800 μM target peptide, 25° C.; class symbols; read-out: ATR Inhibition Ki. The format is biochemical. In a few lines:
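Radiometric 33P filter assay with 5 nM full-length ATR in 50 mM Tris/HCl pH 7.5, 10 mM MgCl2, 1 mM DTT at 25 °C. Final 10 μM [γ-33P]ATP and 800 μM peptide; 10 min compound preincubation, ATP start, stopped at 24 h with phosphoric acid/ATP. Ki(app) from non-linear regression of background-corrected initial rates.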
With `CC(C)S(=O)(=O)c1ccc(-c2cnc3[nH]cc(C(=O)N[C@@H](C)CO)c3n2)cc1` [Compound I-106, N-[(1S)-2-hydroxy-1-methyl-ethyl]-2-(4-isopropylsulfonylphenyl)-5H-pyrrolo[2,3-b]pyrazine-7-carboxamide], the Ki was 100 to 500 nM.

As to `CC(C)S(=O)(=O)c1ccc(-c2cnc3[nH]cc(C(=O)NCc4cccc(F)c4F)c3n2)cc1` [Compound I-88, N-[(2,3-difluorophenyl)methyl]-2-(4-isopropylsulfonylphenyl)-5H-pyrrolo[2,3-b]pyrazine-7-carboxamide], the Ki was under 100 nM.

Take `Cc1cc(NC(=O)c2c[nH]c3ncc(-c4ccc(S(=O)(=O)C(C)C)cc4)nc23)[nH]n1` [Compound I-55, 2-(4-isopropylsulfonylphenyl)-N-(3-methyl-1H-pyrazol-5-yl)-5H-pyrrolo[2,3-b]pyrazine-7-carboxamide]: the Ki is under 100 nM.

With `CC(C)S(=O)(=O)c1ccc(-c2cnc3[nH]cc(C(=O)Nc4ccccc4O)c3n2)cc1` [Compound I-25, N-(2-hydroxyphenyl)-2-(4-isopropylsulfonylphenyl)-5H-pyrrolo[2,3-b]pyrazine-7-carboxamide], the Ki was under 100 nM.

In the case of `CC(C)S(=O)(=O)c1ccc(-c2cnc3[nH]cc(C(=O)NCc4ccc(N)cc4)c3n2)cc1` [Compound I-57, N-[(4-aminophenyl)methyl]-2-(4-isopropylsulfonylphenyl)-5H-pyrrolo[2,3-b]pyrazine-7-carboxamide], the Ki is under 100 nM.

Turning to `CC(C)S(=O)(=O)c1ccc(-c2cnc3[nH]cc(C(=O)NC(CCO)c4ccc(N)cc4)c3n2)cc1` (stereo not shown) [Compound I-80, N-[1-(4-aminophenyl)-3-hydroxy-propyl]-2-(4-isopropylsulfonylphenyl)-5H-pyrrolo[2,3-b]pyrazine-7-carboxamide], the Ki fell in the range of 100 to 500 nM.

Take `CC(C)S(=O)(=O)c1ccc(-c2cnc3[nH]cc(C(=O)NCc4ccccc4Cl)c3n2)cc1` [Compound I-48, N-[(2-chlorophenyl)methyl]-2-(4-isopropylsulfonylphenyl)-5H-pyrrolo[2,3-b]pyrazine-7-carboxamide]: the Ki was under 100 nM.

`CC(C)S(=O)(=O)c1ccc(-c2cnc3[nH]cc(C(=O)NCCN(C)C)c3n2)cc1` [Compound I-21, N-(2-dimethylaminoethyl)-2-(4-isopropylsulfonylphenyl)-5H-pyrrolo[2,3-b]pyrazine-7-carboxamide]: the Ki fell in the range of 500 to 5000 nM.

For `CC(C)S(=O)(=O)c1ccc(-c2cnc3[nH]cc(C(=O)Nc4ccccc4)c3n2)cc1` [Compound I-2, 2-(4-isopropylsulfonylphenyl)-N-phenyl-5H-pyrrolo[2,3-b]pyrazine-7-carboxamide], the Ki was under 100 nM.

Still in this experiment, the particulars now being: Ki(app); 5 nM full-length ATR, 10 μM ATP, 800 μM target peptide, 25° C.; given as numeric lower bound without unit; read-out: ATR Inhibition Ki.
As for `CC(C)S(=O)(=O)c1ccc(-c2cnc3[nH]cc(C(=O)NC4(CO)CC4)c3n2)cc1` [Compound I-113, N-[1-(hydroxymethyl)cyclopropyl]-2-(4-isopropylsulfonylphenyl)-5H-pyrrolo[2,3-b]pyrazine-7-carboxamide], the Ki is over 1000 nM.
